Drawing on US5686486A, “4-hydroxy-benzopyran-2-ones and 4-hydroxy-cycloalkyl[b]pyran-2-ones useful to treat retroviral infections” (priority 1995, dated 1997), this text covers inhibition for 18 compounds.

Where two headings read alike, the source gives them in different places.

The assay addresses HIV-1 protease (Human immunodeficiency virus type 1 group M subtype B, UniProt P04585). Nature of the assay: biochemical. Conditions: for inhibition at 0.123 µM: read-out: HIV-1 Protease % Inhib, dose 0.123 uM. In short, it runs like this: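 Percent inhibition derived from fluorescent cleavage product separated by filtration after streptavidin-bead capture of intact biotin/FITC substrate. Reaction: enzyme (10 μl, 0.1 μM stock) with substrate (20 μl, 0.2 μM stock) and compound, 1 h at room temperature in dark, pH 5.5 acetate buffer with 1.0 M NaCl and 0.05% NP-40.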

Setting [1] is: read-out: HIV-1 Protease % Inhib, dose 0.370 uM.
[2] abbreviates: read-out: HIV-1 Protease % Inhib, dose 1.100 uM.
[3] abbreviates: read-out: HIV-1 Protease % Inhib, dose 3.300 uM.
Setting [4] is: read-out: HIV-1 Protease % Inhib, dose 10.000 uM.
The mark [5] stands for this setting: read-out: HIV-1 Protease % Inhib, dose 30.000 uM.
[6] abbreviates: dose 1.100 uM, read-out: HIV-1 Protease % Inhib.
[7] abbreviates: dose 3.300 uM, read-out: HIV-1 Protease % Inhib.
Where [8] appears, read: dose 10.000 uM, read-out: HIV-1 Protease % Inhib.
Setting [9] is: dose 30.000 uM, read-out: HIV-1 Protease % Inhib.

Consider `O=c1oc2c(c(O)c1C(c1cccc(NS(=O)(=O)c3ccc(Cl)c(Cl)c3Cl)c1)C1CC1)CCCCCC2` (centres unmarked) [Example 410, 2,3,4-Trichloro-N-[3-[cyclopropyl(5,6,7,8,9,10-hexahydro-4-hydroxy-2-oxo-2H-cycloocta[b]pyran-3-yl)methyl]phenyl]-benzenesulfonamide], for which the inhibition at 0.123 µM was 49.5%. Moreover, the inhibition at 0.37 µM under setting [1] was 79.7%. The inhibition at 1.1 µM under setting [2] is 91.4%. Also, the inhibition at 3.3 µM under setting [3] is 90.9%. For the same compound, the inhibition at 10 µM under setting [4] was determined as 96.8%. Besides, the inhibition at 30 µM under setting [5] was found to be 98.3%.

As to `CC(C)C(c1cccc(NS(=O)(=O)c2cccc3cccnc23)c1)c1c(O)c2c(oc1=O)CCCCCC2` (centres unmarked) [Example 416, 8-Quinolinesulfonamide, N-[3-[1-(5,6,7,8,9,10-hexahydro4-hydroxy-2-oxo-2H-cycloocta[b]pyran-3-yl)-2-methylpropyl]phenyl]-], the inhibition at 0.123 µM was determined as 50.9%. Moreover, the inhibition at 0.37 µM under setting [1] worked out at 88%. Further, under setting [2], the inhibition at 1.1 µM was 102%. Also, under setting [3], the inhibition at 3.3 µM was 99.7%. The inhibition at 10 µM under setting [4] amounted to 98.6%. In addition, under setting [5], the inhibition at 30 µM was 97.8%.

In the case of `CC(C)C(c1cccc(NS(=O)(=O)c2cccnc2)c1)c1c(O)c2c(oc1=O)CCCCCC2` (centres unmarked) [Example 417, 3-Pyridinesulfonamide, N-[3-[1-(5,6,7,8,9,10-hexahydro4-hydroxy-2-oxo-2H-cycloocta[b]pyran-3-yl)-2-methylpropyl]phenyl]-], the inhibition at 0.123 µM is 36.4%. In addition, under setting [1], the inhibition at 0.37 µM is 65.9%. The inhibition at 1.1 µM under setting [2] is 89.2%. The inhibition at 3.3 µM under setting [3] came out at 95.1%. Under setting [4], the inhibition at 10 µM was 102%. Besides, the inhibition at 30 µM under setting [5] is 97.3%.

Turning to `CC(C)C(c1cccc(NS(=O)(=O)c2ccc(F)cc2)c1)c1c(O)c2c(oc1=O)CCCCCC2` (centres unmarked) [Example 418, Benzenesulfonamide, N-[3-[1-(5,6,7,8,9,10-hexahydro-4-hydroxy-2-oxo-2H-cycloocta[b]pyran-3-yl)-2-methylpropyl]phenyl]4-fluoro-], the inhibition at 0.123 µM was 81.8%. The inhibition at 0.37 µM under setting [1] was 87.5%. Under setting [2], the inhibition at 1.1 µM stood at 98.6%. The inhibition at 3.3 µM under setting [3] came to 110%. For the same compound, the inhibition at 10 µM under setting [4] turned out to be 119%. Further, the inhibition at 30 µM under setting [5] is 123%.

On to `CCCCC(c1cccc(NS(=O)(=O)c2ccc(C#N)cc2)c1)c1c(O)c2c(oc1=O)CCCCCC2` (centres unmarked) [Example 421, Benzenesulfonamide, 4-cyano-N-[3-[1-(5,6,7,8,9,10-hexahydro-4-hydroxy-2-oxo-2H-cycloocta[b]pyran-3-yl)pentyl]phenyl]-], for which the inhibition at 0.123 µM was found to be 93.9%. The inhibition at 0.37 µM under setting [1] amounted to 104%. Besides, the inhibition at 1.1 µM under setting [2] stood at 99.1%. Moreover, under setting [3], the inhibition at 3.3 µM was determined as 97.9%. For the same compound, the inhibition at 10 µM under setting [4] came out at 108%. Also, the inhibition at 30 µM under setting [5] worked out at 90%.

Turning to `CCCCC(c1cccc(NS(=O)(=O)c2ccc(F)cc2)c1)c1c(O)c2c(oc1=O)CCCCCC2` (centres unmarked) [Example 422], the inhibition at 0.123 µM was determined as 100%. Besides, the inhibition at 0.37 µM under setting [1] is 95.4%. Besides, the inhibition at 1.1 µM under setting [2] stood at 96.5%. Further, the inhibition at 3.3 µM under setting [3] is 103%. The inhibition at 10 µM under setting [4] was 97.6%. In addition, the inhibition at 30 µM under setting [5] is 95.2%.

As to `CC(C)CC(c1cccc(NS(=O)(=O)c2ccc(F)cc2)c1)c1c(O)c2c(oc1=O)CCCCCC2` (centres unmarked) [Example 425, Benzenesulfonamide, N-[3-[1-(5,6,7,8,9,10-hexahydro-4-hydroxy-2-oxo-2H-cycloocta[b]pyran-3-yl)-3-methylbutyl]phenyl]-4-fluoro-], the inhibition at 0.123 µM was found to be 97.4%. For the same compound, the inhibition at 0.37 µM under setting [1] was 109%. For the same compound, the inhibition at 1.1 µM under setting [2] is 101%. Further, under setting [3], the inhibition at 3.3 µM was 108%. Moreover, the inhibition at 10 µM under setting [4] came out at 98.5%. In addition, under setting [5], the inhibition at 30 µM was found to be 98.5%.

On to `CC(C)CC(c1cccc(NS(=O)(=O)c2cccc3cccnc23)c1)c1c(O)c2c(oc1=O)CCCCCC2` (centres unmarked) [Example 428, 8-Quinolinesulfonamide, N-[3-[1-(5,6,7,8,9,10-hexahydro4-hydroxy-2-oxo-2H-cycloocta[b]pyran-3-yl)-3-methylbutyl]phenyl]-], for which the inhibition at 0.123 µM came out at 86.3%. Further, the inhibition at 0.37 µM under setting [1] was 84%. The inhibition at 1.1 µM under setting [2] came to 86.5%. Under setting [3], the inhibition at 3.3 µM was 87.1%. For the same compound, under setting [4], the inhibition at 10 µM stood at 87.9%. Besides, the inhibition at 30 µM under setting [5] was found to be 84.2%.

For the compound `CC(C)CC(c1cccc(NS(=O)(=O)c2cccnc2)c1)c1c(O)c2c(oc1=O)CCCCCC2` (centres unmarked) [Example 429, 3-Pyridinesulfonamide, N-[3-[1-(5,6,7,8,9,10-hexahydro4-hydroxy-2-oxo-2H-cycloocta[b]pyran-3-yl)-3-methylbutyl]phenyl]-], the inhibition at 0.123 µM is 88.6%. The inhibition at 0.37 µM under setting [1] stood at 98.2%. Moreover, the inhibition at 1.1 µM under setting [2] worked out at 99.9%. Under setting [3], the inhibition at 3.3 µM was determined as 103%. Further, under setting [4], the inhibition at 10 µM is 107%. Further, the inhibition at 30 µM under setting [5] stood at 108%.

On to `CCCC(c1cccc(NS(=O)(=O)c2ccc(F)cc2)c1)c1c(O)c2c(oc1=O)CCCCCC2` (centres unmarked) [Example 430, Benzenesulfonamide, N-[3-[1-(5,6,7,8,9,10-hexahydro-4-hydroxy-2-oxo-2H-cycloocta[b]pyran-3-yl)butyl]phenyl]-4-fluoro-], for which the inhibition at 0.123 µM was 72.3%. The inhibition at 0.37 µM under setting [1] turned out to be 98.2%. Moreover, the inhibition at 1.1 µM under setting [2] was 96.6%. For the same compound, the inhibition at 3.3 µM under setting [3] stood at 104%. The inhibition at 10 µM under setting [4] is 105%. For the same compound, the inhibition at 30 µM under setting [5] came to 97.3%.

As to `O=C(Nc1ccc(C(c2c(O)c3c(oc2=O)CCCCCC3)C2CC2)cc1)OCc1ccccc1` (centres unmarked) [Example 470, Carbamic acid, [4-[cyclopropyl (5,6,7,8,9,10-hexahydro-4-hydroxy-2-oxo-2H-cycloocta[b]pyran-3-yl)methyl]phenyl]-phenylmethyl ester], the inhibition at 1.1 µM under setting [6] is 16.1%. Also, under setting [7], the inhibition at 3.3 µM is 59.2%. In addition, under setting [8], the inhibition at 10 µM was 102%. For the same compound, the inhibition at 30 µM under setting [9] was found to be 118%.

On to `Nc1ccc(C(c2c(O)c3c(oc2=O)CCCCCC3)C2CC2)cc1` (centres unmarked) [Example 471, 3-[(4-Aminophenyl)cyclopropylmethyl]-5,6,7,8,9,10-hexahydro-4-hydroxy-2H-cycloocta[b]pyran-2-one], for which the inhibition at 1.1 µM under setting [6] was determined as 37.5%. In addition, the inhibition at 3.3 µM under setting [7] was determined as 75.6%. Further, the inhibition at 10 µM under setting [8] came out at 102%. In addition, the inhibition at 30 µM under setting [9] was 110%.

Take `N#Cc1ccc(S(=O)(=O)Nc2ccc(C(c3c(O)c4c(oc3=O)CCCCCC4)C3CC3)cc2)cc1` (centres unmarked) [Example 472, Benzenesulfonamide, 4-cyano-N-[4-[cyclopropyl (5,6,7,8,9,10-hexahydro-4-hydroxy-2-oxo-2H-cycloocta [b]pyran-3-yl)methyl]phenyl]-]: the inhibition at 3.3 µM under setting [7] was found to be 15.5%. For the same compound, the inhibition at 10 µM under setting [8] was 82.2%. Also, the inhibition at 30 µM under setting [9] was 110%.

`O=c1oc2c(c(O)c1C(c1ccc(NS(=O)(=O)c3ccc(Cl)cc3)cc1)C1CC1)CCCCCC2` (centres unmarked) [Example 473, Benzenesulfonamide, 4-chloro-N-[4-[cyclopropyl(5,6,7,8,9,10-hexahydro-4-hydroxy-2-oxo-2H-cycloocta[b]pyran-3-yl)methyl]phenyl]-]: under setting [7], the inhibition at 3.3 µM was 14.4%. For the same compound, the inhibition at 10 µM under setting [8] was determined as 73.6%. In addition, the inhibition at 30 µM under setting [9] came out at 86.8%.

With `O=c1oc2c(c(O)c1C(c1ccc(NS(=O)(=O)c3ccc(F)cc3)cc1)C1CC1)CCCCCC2` (centres unmarked) [Example 474, Benzenesulfonamide, 4-fluoro-N-[4-[cycloptopyl(5,6,7,8,9,10-hexahydro-4-hydroxy-2-oxo-2H-cycloocta[b]pyran-3-yl)methyl]phenyl]-], the inhibition at 3.3 µM under setting [7] was found to be 11.4%. In addition, the inhibition at 10 µM under setting [8] is 40.4%. Also, under setting [9], the inhibition at 30 µM amounted to 57.2%.

As to `O=c1oc2c(c(O)c1C(c1ccc(NS(=O)(=O)c3cccc([N+](=O)[O-])c3)cc1)C1CC1)CCCCCC2` (centres unmarked) [Example 475, Benzenesulfonamide, 3-nitro-N-[4-[cyclopropyl (5,6,7,8,9,10-hexahydro-4-hydroxy-2-oxo-2H-cycloocta[b]pyran-3-yl)methyl]phenyl]-], the inhibition at 0.37 µM (dose 0.370 uM, read-out: HIV-1 Protease % Inhib) is 11.8%. The inhibition at 1.1 µM under setting [6] worked out at 27.9%. Besides, under setting [7], the inhibition at 3.3 µM was determined as 84.1%. Further, the inhibition at 10 µM under setting [8] was 103%. Also, the inhibition at 30 µM under setting [9] came out at 110%.

As for `Cn1cnc(S(=O)(=O)Nc2ccc(C(c3c(O)c4c(oc3=O)CCCCCC4)C3CC3)cc2)c1` (centres unmarked) [Example 476, N-[4-[Cyclopropyl (5,6,7,8,9,10-hexahydro-4-hydroxy-2-oxo-2H-cycloocta[b]pyran-3-yl)methyl]phenyl]-1-methyl-1H-imidazole-4-sulfonamide], the inhibition at 1.1 µM under setting [6] was 19.5%. In addition, the inhibition at 3.3 µM under setting [7] came to 53.1%. Also, the inhibition at 10 µM under setting [8] came out at 83%. The inhibition at 30 µM under setting [9] is 83.1%.

As for `CC(C)(C)OC(=O)NCc1ccc(C(c2c(O)c3c(oc2=O)CCCCCC3)C2CC2)o1` (stereo not drawn) [Example 480, 3-(α-Cyclopropyl(5-(N-carbo-t-butoxy)aminomethyl)furfur-2-yl)-4-hydroxy-5,6,7,8,9,10-hexahydrocycloocata[b]pyran-2-one], the inhibition at 3.3 µM under setting [7] worked out at 19.2%. In addition, the inhibition at 10 µM under setting [8] is 45.5%. Moreover, the inhibition at 30 µM under setting [9] is 78.2%.
